What was measured:
in vivo = settings: rat, ip
Description: Compound was tested for its acute toxicity in rat after ip administration

Rattus norvegicus [1] = species: Rattus norvegicus; assay: animal or person
Description: In vivo inhibition of apomorphine induced hyperactivity in rats.

Rattus norvegicus [2] = species: Rattus norvegicus; assay: animal or person; remark: listed apart in the source
Description: In vivo inhibition of apomorphine induced stereotypy in rats.

Rattus norvegicus [3] = assay: Compound was tested for anti-dopamine activity in vivo by its ability to inhibit apomorphine induced hyperactivity in rat; assay type: functional
Rattus norvegicus [4] = assay: Compound was tested for anti-dopamine activity in vivo by its ability to inhibit apomorphine induced stereotypy in rat; assay type: functional

| Structure (SMILES) | LD50 (in vivo) [µmol/kg] | ED50 (Rattus norvegicus [1]) [µmol/kg] | ED50 (Rattus norvegicus [2]) [µmol/kg] | ED50 (Rattus norvegicus [3]) [µmol/kg] | ED50 (Rattus norvegicus [4]) [µmol/kg] |
| --- | --- | --- | --- | --- | --- |
| CCc1cc(Br)c(OC)c(C(=O)NC[C@@H]2CCCN2CC)c1O | 320 | 0.085 | 0.47 | – | – |
| CCc1cc(CC)c(OC)c(C(=O)NC[C@@H]2CCCN2CC)c1O | 530 | 0.076 | 0.46 | – | – |
| CCc1cc(Cl)c(O)c(C(=O)NC[C@@H]2CCCN2CC)c1OC | – | 2.5 | 1.51 | – | – |
| CCN1CCC[C@H]1CNC(=O)c1c(O)c(Br)cc(Br)c1OC | 450 | 0.65 | 1.48 | – | – |
| CCc1ccc(OC)c(C(=O)NC[C@@H]2CCCN2CC)c1O | 370 | 0.12 | 0.28 | – | – |
| CCN1CCC[C@H]1CNC(=O)c1c(O)c(Br)cc(Cl)c1OC | – | 0.95 | 1.35 | – | – |
| CCN1CCC[C@H]1CNC(=O)c1cc(Br)cc(Br)c1O | – | 28 | > 40 | – | – |
| O=C(CCCN1CCC(O)(c2ccc(Cl)cc2)CC1)c1ccc(F)cc1 [HALOPERIDOL] | 93 | – | – | 0.29 | 0.27 |
| CCN1CCC[C@@H]1CNC(=O)c1c(O)c(Cl)cc(Cl)c1OC | – | 1.07 | 32 | – | – |
| CCN1CCC[C@H]1CNC(=O)c1c(O)c(Br)cc(F)c1OC | – | 0.16 | 0.42 | – | – |
| CCc1cc(F)c(OC)c(C(=O)NC[C@@H]2CCCN2CC)c1O | – | 0.065 | 0.31 | – | – |
| CCc1cc(Cl)c(OC)c(C(=O)NC[C@@H]2CCCN2CC)c1O [ETICLOPRIDE] | 330 | 0.032 | 0.19 | – | – |
| CCN1CCC[C@H]1CNC(=O)c1cc(Br)cc(Br)c1OC | – | 0.66 | 2.69 | – | – |
| CCN1CCC[C@H]1CNC(=O)c1c(O)c(Cl)cc(Cl)c1OC [RACLOPRIDE] | 660 | 0.13 | 1.7 | – | – |
| CCCc1cc(Cl)c(OC)c(C(=O)NC[C@@H]2CCCN2CC)c1O | – | 0.1 | 0.35 | – | – |
| CCc1cc(Br)c(O)c(C(=O)NC[C@@H]2CCCN2CC)c1OC | – | 0.87 | 1.45 | – | – |
| CCN1CCC[C@H]1CNC(=O)c1c(O)c(C)cc(Cl)c1OC | – | 0.74 | 1.32 | – | – |
| CCN1CCC[C@H]1CNC(=O)c1c(O)c(C)cc(C)c1OC | – | 1.86 | 3.1 | – | – |

Source: ChEMBL document CHEMBL1123212 (J Med Chem, 1986)
